According to a melting point compilation (Tetko et al.; mined from patent text by program, amines drawn as free bases though some values may be those of a salt):

melting point [°C]	Compound
136 to 138	Oc1ccc(Cl)nc1Cl
85 to 87	CSc1ccc2oc3ccccc3c2c1
128 to 129	CN(C)Cc1ccccc1Sc1ccc([N+](=O)[O-])cc1[N+](=O)[O-]
158 to 160	CN=C(NS(=O)(=O)N1CCC(F)(F)CC1)N1CC(c2ccccc2)C(c2ccc(Cl)cc2)=N1 (configuration not stated)
29 to 30	CCC(C)(C)NC(=O)C(=O)c1ccccc1
223 to 224	CCCNc1cc(C(=O)O)cc(S(N)(=O)=O)c1Oc1ccccc1
81 to 83	CN(C)CCCOc1ccc(C(=O)NN)cn1
225 to 226	O=C(CC(NC(=O)COc1ccccc1)c1ccccc1)Nc1n[nH]c(=S)s1 (configuration not stated)
175 to 178	CC(C)[C@H](NC(=O)OCc1cccnc1)C(=O)N[C@@H](Cc1ccccc1)[C@@H](O)[C@@H](O)[C@H](Cc1ccccc1)NC(=O)OC(C)(C)C
255 to 258	CC(C)n1nc(-c2c(-c3ccccc3)nc(N)nc2-n2ccnc2)ccc1=O
325 to 326	Cc1nc2c3c(c(C(=O)O)cc2n1C)CCC(c1ccccc1)N3 (configuration not stated)
> 250	Cc1ccc(C)n1C1=CC2=C(CC1)CCc1[nH]c(=O)c(=O)n(O)c12
69 to 70	COC(=O)Cc1cc(OC)ccc1O
170 to 172	CC(=O)NCC1CN(c2ccc(N3CCC(O)(C(C#N)C4CC4)CC3)c(F)c2)C(=O)O1 (configuration not stated)
120 to 122	CC(C)(C)OC(=O)COC1=CC(=O)c2ccccc2C1=O
184 to 185	CCOC(=O)C(C)(C)n1c(=O)[nH]c2ccc([N+](=O)[O-])cc2c1=O
321 to 324	O=C1N=C(N2CCOCC2)SC1=Cc1ccccc1-c1ccc(O)c(C23CC4CC(CC(C4)C2)C3)c1
160 to 161	CC(C)n1nc(-c2c(-c3ccccc3)nn3ccc(N4CCN(C(=O)N(C)C)CC4)cc23)ccc1=O
280 to 282	O=C1Nc2c(O)cccc2C(=O)N2CCCC12 (configuration not stated)
104	COc1ccccc1-c1cccc(CC(NC(=O)c2c(Cl)cccc2Cl)C(=O)O)c1 (racemic)
141 to 143	CN1c2ccccc2C(C#N)c2ccccc21
150	CS(=O)(=O)N1CCN([C@@H](CNC(=O)c2ccc(OCc3ccccc3)cc2)C(=O)NO)CC1

More lines, now with the values behind:

Compound	melting point [°C]
CC(=O)N(N1C(=O)C(NC(=O)Nc2cccc(C)c2)CC(c2ccccc2)CC1c1ccccc1)C(C)(C)C (single isomer, unassigned; (-))	140 to 150
Nc1nc2ccccc2n1-c1ccc(-c2ccco2)cc1	210 to 212
COC(=O)CCc1cc(C)c(O)c(C)c1	70 to 83
CSc1ccc(Br)cn1	39 to 40
COC(=O)c1ccccc1OCCN1CCC(c2c[nH]c3ccccc23)CC1	124 to 125
Cc1cc2cc(/C(=C\CO)c3ccc(I)cc3)ccc2o1	103 to 113
CC(C#N)(Cc1c[nH]cn1)c1ccccc1 (configuration not stated)	187 to 189
CCCCc1nc2c(N)nc3ccccc3c2n1CCS(C)(=O)=O	226 to 228
OCC1CCC(O)C1O (configuration not stated)	157 to 159
CC(C)(CNS(=O)(=O)c1ccc(-c2ccccn2)s1)N1CCC(Oc2ccc(F)c(F)c2)CC1	133 to 134
CCOC(=O)CSc1nc2ccc(N)cc2s1	87 to 89
CC(Cl)(Cl)C(NC(=O)c1cccc(Cl)c1)NC(=NC#N)Nc1ccc(Cl)nc1 (configuration not stated)	138 to 140
CN(C)C(=O)c1c(F)cccc1I	86 to 89
OC1(CNCc2ccccc2)CCN(CCCc2c[nH]c3ccc(-n4cnnc4)cc23)CC1	> 60
Oc1ccc2cc(-c3csc(Cc4c(Cl)cccc4Cl)n3)ccc2c1	191 to 193
CCCCCC(=O)c1ccc(C(=O)Nc2ccc3cc(CN4CCCC4)cnc3c2C)cc1	175
Nc1ccc(N2CCN(Cc3ccccc3)CC2)cc1CS(=O)(=O)c1ccccc1	141 to 143
NS(=O)(=O)c1ccc(-n2nc(C(F)F)cc2-c2nc3ccc(F)cc3s2)cc1	255
COc1cc(C)c(C=CC(C)=CC=CC(C)=CC(=O)NC(C)C)c(C)c1C	200
O=C(O)Cn1c(=O)n2n(c1=O)C(C(=O)O)CCC2 (configuration not stated)	189 to 192
COC(=O)c1c2nc3ccccc3c-2[nH]c2ccccc12	152 to 154
CSc1ccc(-c2cc(-c3nc4ccccc4c(=O)n3-c3cccc(C)c3)sc2N2CCOCC2)cc1	220 to 221
Cc1nc2c(c(N)c1C(=O)O)c1ccccc1n2C	230 to 232
N#CC(C#N)=CCOCCc1ccccc1	135 to 136
C=C(c1ccc(C#N)cc1)c1cncs1	71 to 73

Compound	melting point [°C]
CSC(=C(C#N)C#N)N1CCc2ccccc2CC1	129 to 132
NS(=O)(=O)c1cccc(-c2cccc(-c3nc(-c4ccc(F)c(F)c4)cc(C(F)(F)F)n3)c2)c1	211
CCOC(=O)c1ccc2c(O)c(C(=O)OCC)c(=O)n(C)c2n1	174 to 175
Cc1nsc(Br)c1S(=O)(=O)NC(C)(C)C	118 to 123
Cc1cccc(OS(=O)(=O)c2ccc(N3CCCNC3=O)cc2)c1	145 to 147
COC(=O)Cc1ccc(-c2ccc(F)cc2F)c(F)c1	74 to 77
CN1CCN(c2nc3c(cc2F)c(=O)n(OCc2ccccc2)c(=O)n3C2CC2)CC1	188 to 189
CCCCc1nc(C(C)(C)O)c(C(=O)O)n1Cc1ccc(-c2ccccc2C(=O)C(=O)O)cc1	165 to 170
Cc1cc(C#N)cc(C(=O)NC(C)C)c1NC(=O)c1cc(Br)nn1-c1ccccc1Cl	145 to 149
CCOC(=O)c1cn(C2CC2)c2nc(N3CCCC(n4ccnn4)C3)c(F)cc2c1=O (configuration not stated)	205 to 206
CSc1nc(=O)cc(C)n1C1CCCCC1	184 to 186
Cc1nc(-c2ccccc2)ncc1C(=O)c1ccccc1	68 to 72
O=C(O)CCc1cc(Br)c(OC(=O)c2c3ccccc3nc3ccccc23)c(Br)c1	240 to 242
CCCc1nc2c(N)nc3c(c2n1CCCCCC(=O)N1CCOCC1)CCCC3	162 to 163
N#Cc1ccc2ccc(Br)cc2c1	126 to 128
CCOC(=O)C(=O)Nc1ccc2c(=O)n3c(nc2c1)C(=Cc1cccc(OC)c1OCC)CC3	174 to 177
N#Cc1cc(-c2c3ccccc3cc3sc4ccccc4c23)cc(C#N)c1OCC(=O)O	134 to 136
CCOC(=O)COCc1nnc(S)n1C	86 to 88
CC1(C)CCC(C)(C)c2cc3c(cc21)CCc1c(-c2ccc(C(=O)O)cc2)ccnc1-3	286 to 289
COc1cccc2c1CNC2	58.5 to 60
COc1ccc(N(C(=O)Nc2cc(C)c(S(=O)(=O)C[N+](=O)[O-])c(C)c2)c2ccc(OC)cc2)cc1	150 to 151
CCCCCCCCCc1cc(-c2ccccc2)c(OCC(=O)O)c(-c2ccccc2)c1	63 to 65
CC(=O)NCCC1CCc2ccc3nc(C)oc3c21 (configuration not stated)	93 to 95
COc1cc(C(=O)NS(=O)(=O)c2ccccc2)ccc1Cn1ccc2ccc(N)cc21	151 to 155
CN(c1cccnc1Cl)S(=O)(=O)c1ccccc1[N+](=O)[O-]	116 to 118
